Assay results reported in the NIST ThermoML archive (doi:10.1021/je700260f).
Several values for one entry are separate records, joined by “and”; a condition that tells them apart may be missing. Equal entries are not always repeated.

Conditions: Liquid, Vibrating tube method

FC(C(F)(F)F)C(F)(F)F [1,1,1,2,3,3,3-heptafluoropropane]
Conditions	mass density
283.15 K, 34529 kPa	1579 kg/m3
283.15 K, 34530 kPa	1579 kg/m3
283.15 K, 34532 kPa	1579.1 kg/m3
283.15 K, 34533 kPa	1579 kg/m3
283.15 K, 34534 kPa	1579.1 kg/m3
283.15 K, 34535 kPa	1579.2 kg/m3
283.15 K, 34536 kPa	1579 kg/m3
283.15 K, 34538 kPa	1579 kg/m3 and 1579.1 kg/m3
283.15 K, 34540 kPa	1579.1 kg/m3
283.15 K, 34541 kPa	1579.1 kg/m3
283.16 K, 9519 kPa	1496 kg/m3
283.16 K, 9552 kPa	1496.3 kg/m3
283.16 K, 9579 kPa	1496.3 kg/m3
283.16 K, 9612 kPa	1496.4 kg/m3
283.16 K, 21379 kPa	1540.8 kg/m3
293.14 K, 783 kPa	1411.5 kg/m3
293.14 K, 832 kPa	1411.9 kg/m3
293.14 K, 869 kPa	1412.2 kg/m3
293.14 K, 911 kPa	1412.4 kg/m3
293.14 K, 943 kPa	1412.7 kg/m3
293.14 K, 980 kPa	1412.9 kg/m3
293.14 K, 1007 kPa	1413.2 kg/m3
293.14 K, 1048 kPa	1413.5 kg/m3
293.14 K, 1080 kPa	1413.6 kg/m3
293.14 K, 1113 kPa	1414 kg/m3
293.14 K, 1145 kPa	1414.1 kg/m3
293.14 K, 1191 kPa	1414.5 kg/m3
293.14 K, 1219 kPa	1414.6 kg/m3
293.14 K, 1252 kPa	1414.9 kg/m3
293.14 K, 1285 kPa	1415 kg/m3
293.14 K, 1319 kPa	1415.2 kg/m3
293.14 K, 1347 kPa	1415.6 kg/m3
293.14 K, 1380 kPa	1415.7 kg/m3
293.14 K, 1417 kPa	1415.9 kg/m3
293.14 K, 1446 kPa	1416.2 kg/m3
293.14 K, 1484 kPa	1416.4 kg/m3
293.14 K, 1514 kPa	1416.7 kg/m3
293.14 K, 1543 kPa	1417 kg/m3
293.14 K, 1583 kPa	1417.1 kg/m3
293.14 K, 1612 kPa	1417.3 kg/m3
293.14 K, 1754 kPa	1418.3 kg/m3
293.14 K, 1789 kPa	1418.7 kg/m3
293.14 K, 1824 kPa	1418.8 kg/m3
293.14 K, 1901 kPa	1419.3 kg/m3
293.14 K, 1941 kPa	1419.6 kg/m3
293.14 K, 1972 kPa	1419.8 kg/m3
293.14 K, 2001 kPa	1420.1 kg/m3
293.14 K, 2030 kPa	1420.1 kg/m3
293.14 K, 2059 kPa	1420.5 kg/m3
293.14 K, 2084 kPa	1420.5 kg/m3
293.14 K, 2104 kPa	1420.7 kg/m3
293.14 K, 2140 kPa	1421 kg/m3
293.14 K, 2164 kPa	1421 kg/m3
293.14 K, 2197 kPa	1421.3 kg/m3
293.14 K, 2221 kPa	1421.4 kg/m3
293.14 K, 2258 kPa	1421.7 kg/m3
293.14 K, 2291 kPa	1421.9 kg/m3
293.14 K, 2324 kPa	1422.2 kg/m3
293.14 K, 2349 kPa	1422.4 kg/m3
293.14 K, 2377 kPa	1422.7 kg/m3
293.14 K, 2402 kPa	1422.6 kg/m3
293.14 K, 2682 kPa	1424.5 kg/m3
293.14 K, 2707 kPa	1424.7 kg/m3
293.14 K, 2740 kPa	1424.9 kg/m3
293.14 K, 2766 kPa	1425.1 kg/m3
293.14 K, 2804 kPa	1425.4 kg/m3
293.14 K, 2829 kPa	1425.5 kg/m3
293.14 K, 2858 kPa	1425.8 kg/m3
293.14 K, 2883 kPa	1425.8 kg/m3
293.14 K, 2921 kPa	1426.1 kg/m3
293.14 K, 2959 kPa	1426.4 kg/m3
293.14 K, 2988 kPa	1426.7 kg/m3
293.14 K, 3018 kPa	1426.7 kg/m3
293.14 K, 3056 kPa	1426.9 kg/m3
293.14 K, 3082 kPa	1427.2 kg/m3
293.14 K, 3112 kPa	1427.3 kg/m3
293.14 K, 3147 kPa	1427.5 kg/m3
293.14 K, 3177 kPa	1427.8 kg/m3
293.14 K, 3211 kPa	1427.9 kg/m3
293.14 K, 3246 kPa	1428.2 kg/m3
293.14 K, 3290 kPa	1428.4 kg/m3
293.14 K, 3321 kPa	1428.7 kg/m3
293.14 K, 3360 kPa	1428.9 kg/m3
293.14 K, 3395 kPa	1429.1 kg/m3
293.14 K, 3426 kPa	1429.3 kg/m3
293.14 K, 3461 kPa	1429.4 kg/m3
293.14 K, 3502 kPa	1429.8 kg/m3
293.14 K, 3537 kPa	1430 kg/m3
293.14 K, 3573 kPa	1430.1 kg/m3
293.14 K, 3604 kPa	1430.4 kg/m3
293.14 K, 3631 kPa	1430.7 kg/m3
293.14 K, 3668 kPa	1430.7 kg/m3
293.14 K, 3690 kPa	1431.1 kg/m3
293.14 K, 3722 kPa	1431 kg/m3
293.14 K, 3750 kPa	1431.3 kg/m3
293.14 K, 3815 kPa	1431.8 kg/m3
293.14 K, 3876 kPa	1432.1 kg/m3
293.14 K, 4878 kPa	1438.3 kg/m3
293.14 K, 4910 kPa	1438.4 kg/m3
293.14 K, 4933 kPa	1438.5 kg/m3
293.14 K, 4965 kPa	1438.7 kg/m3
293.14 K, 4997 kPa	1438.9 kg/m3
293.14 K, 5029 kPa	1439.2 kg/m3
293.14 K, 7613 kPa	1453.4 kg/m3
293.14 K, 7636 kPa	1453.6 kg/m3
293.14 K, 7664 kPa	1453.8 kg/m3
293.14 K, 7697 kPa	1454 kg/m3
293.14 K, 7725 kPa	1454 kg/m3
293.14 K, 7758 kPa	1454.2 kg/m3
293.14 K, 7801 kPa	1454.4 kg/m3
293.14 K, 7862 kPa	1454.8 kg/m3
293.14 K, 7886 kPa	1454.8 kg/m3
293.14 K, 7919 kPa	1455.1 kg/m3
293.14 K, 7952 kPa	1455.3 kg/m3
293.14 K, 7995 kPa	1455.4 kg/m3
293.14 K, 8024 kPa	1455.6 kg/m3
293.14 K, 8053 kPa	1455.7 kg/m3
293.14 K, 8087 kPa	1455.9 kg/m3
293.14 K, 8111 kPa	1456.1 kg/m3
293.14 K, 8140 kPa	1456.2 kg/m3
293.14 K, 8183 kPa	1456.4 kg/m3
293.14 K, 8211 kPa	1456.6 kg/m3
293.14 K, 8240 kPa	1456.7 kg/m3
293.14 K, 8283 kPa	1456.9 kg/m3
293.14 K, 8312 kPa	1457.1 kg/m3
293.14 K, 8350 kPa	1457.4 kg/m3
293.14 K, 8380 kPa	1457.4 kg/m3
293.14 K, 8410 kPa	1457.7 kg/m3
293.14 K, 8447 kPa	1457.8 kg/m3
293.14 K, 8480 kPa	1457.9 kg/m3
293.14 K, 8509 kPa	1458.1 kg/m3
293.14 K, 8542 kPa	1458.3 kg/m3
293.14 K, 9213 kPa	1461.8 kg/m3
293.14 K, 9292 kPa	1462.1 kg/m3
293.14 K, 9327 kPa	1462.4 kg/m3
293.14 K, 9357 kPa	1462.4 kg/m3
293.14 K, 9402 kPa	1462.7 kg/m3
293.14 K, 9437 kPa	1462.7 kg/m3
293.14 K, 9481 kPa	1463 kg/m3
293.14 K, 9511 kPa	1463.2 kg/m3
293.14 K, 9547 kPa	1463.4 kg/m3
293.14 K, 9584 kPa	1463.5 kg/m3
293.14 K, 9615 kPa	1463.7 kg/m3
293.14 K, 9655 kPa	1464 kg/m3
293.14 K, 9695 kPa	1464.1 kg/m3
293.14 K, 9731 kPa	1464.2 kg/m3
293.14 K, 9771 kPa	1464.6 kg/m3
293.14 K, 9807 kPa	1464.6 kg/m3
293.14 K, 9843 kPa	1464.8 kg/m3
293.14 K, 9879 kPa	1464.9 kg/m3
293.14 K, 9915 kPa	1465.1 kg/m3
293.14 K, 9946 kPa	1465.3 kg/m3
293.14 K, 10356 kPa	1467.4 kg/m3
293.14 K, 10403 kPa	1467.6 kg/m3
293.14 K, 10428 kPa	1467.8 kg/m3
293.14 K, 10474 kPa	1467.9 kg/m3
293.14 K, 10520 kPa	1468.1 kg/m3
293.14 K, 11001 kPa	1470.5 kg/m3
293.14 K, 12780 kPa	1478.5 kg/m3
293.14 K, 12814 kPa	1478.8 kg/m3
293.14 K, 12854 kPa	1478.9 kg/m3
293.14 K, 12939 kPa	1479.2 kg/m3
293.14 K, 13996 kPa	1483.9 kg/m3
293.14 K, 14034 kPa	1484.1 kg/m3
293.14 K, 16570 kPa	1494.7 kg/m3
293.14 K, 16613 kPa	1494.8 kg/m3
293.14 K, 16642 kPa	1494.8 kg/m3
293.14 K, 16676 kPa	1495.1 kg/m3
293.14 K, 16710 kPa	1495.1 kg/m3
293.14 K, 16801 kPa	1495.6 kg/m3
293.14 K, 17585 kPa	1498.6 kg/m3
293.14 K, 17619 kPa	1498.8 kg/m3
293.14 K, 19526 kPa	1506.1 kg/m3
293.14 K, 19555 kPa	1506.3 kg/m3
293.14 K, 19593 kPa	1506.2 kg/m3
293.14 K, 20937 kPa	1511.3 kg/m3
293.14 K, 21424 kPa	1513.1 kg/m3
293.14 K, 21528 kPa	1513.4 kg/m3
293.14 K, 21563 kPa	1513.5 kg/m3
293.14 K, 21593 kPa	1513.7 kg/m3
293.14 K, 21629 kPa	1513.8 kg/m3
293.14 K, 21779 kPa	1514.5 kg/m3
293.14 K, 21810 kPa	1514.5 kg/m3
293.14 K, 21855 kPa	1514.7 kg/m3
293.14 K, 21896 kPa	1514.8 kg/m3
293.14 K, 23767 kPa	1521.3 kg/m3
293.14 K, 32750 kPa	1549.5 kg/m3
293.14 K, 32783 kPa	1549.7 kg/m3
293.14 K, 32817 kPa	1549.7 kg/m3
293.14 K, 32855 kPa	1549.9 kg/m3
293.14 K, 32884 kPa	1549.9 kg/m3
293.14 K, 32926 kPa	1550.1 kg/m3
293.14 K, 32970 kPa	1550.2 kg/m3
293.14 K, 32998 kPa	1550.3 kg/m3
293.14 K, 33036 kPa	1550.4 kg/m3
293.14 K, 33075 kPa	1550.3 kg/m3
293.14 K, 33109 kPa	1550.6 kg/m3
293.14 K, 33143 kPa	1550.6 kg/m3
293.14 K, 33182 kPa	1550.8 kg/m3
293.14 K, 33215 kPa	1550.9 kg/m3
293.14 K, 33255 kPa	1550.8 kg/m3
293.14 K, 33293 kPa	1551.1 kg/m3
293.14 K, 33323 kPa	1551.1 kg/m3
293.14 K, 33367 kPa	1551.3 kg/m3
293.14 K, 33406 kPa	1551.4 kg/m3
